Source: patent US20230105108A1, “COMPOUNDS FOR THE TREATMENT OF BACTERIAL INFECTIONS AND POTENTIATION OF ANTIBIOTICS” (GEORGIA STATE UNIVERSITY RESEARCH FOUNDATION, INC., priority 2019, published 2023)
Entries after “also recorded” stand apart in the source; their conditions may differ. Structures can show the parent of a compound that is named as a salt. Where two headings read alike, the source gives them in different places. Marks after values point to notes of the source that are not given here.

Tests used:
E. coli (ATCC 25922) [1] = assay: MIC determination, sensitization fold and FIC index on E. coli; type: cell-based; conditions: for MIC: Escherichia coli
How it was run: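 MICs read by OD600 as >90% growth inhibition after two-fold rifampicin dilutions, 5×10^5 CFU/ml E. coli, 24 h, 37 °C, shaken, cation-adjusted Mueller Hinton II broth.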

MRSA (ATCC 33592) = assay: MIC determination and sensitization fold on MRSA; type: cell-based, methicillin-resistant Staphylococcus aureus; conditions: MRSA; for Sensitization fold: rifampicin
E. coli [2] = assay: Lysozyme assay (outer membrane disruption); type: cell-based; conditions: for bacterial lysis by lysozyme in the presence of sensitizer: 50 μg/ml lysozyme, 10 min; for bacterial lysis by sensitizer itself: absence of lysozyme
Method: Lysozyme assay to evaluate the disruption of Gram-negative bacteria out membrane by bacterial sensitizers. Lysozyme assay was performed based on literature reported method. E. coli was cultured in Mueller Hinton II cation-adjusted broth for overnight, centrifuged at 3000 g for 10 min, washed with HEPES buffer (pH=7.2) and then centrifuged again to obtain bacteria pallet. The pallet was then gently resuspended in HEPES buffer with 5 mM NaCN to obtain an E. coli suspension with OD600 between 0.8˜1.0. On a 96-well plate, each well was supplied with 100 μl lysozyme solution (100 μg/ml) containing 50 or 100 μg/ml bacterial sensitizers in HEPES buffer. To each well was added 100 μl E. coli suspension. The final concentration of lysozyme was 50 μg/ml. The plate was incubated at room temperature for 10 min and the OD600 was recorded. E. coli was also incubated with bacterial sensitizers in the absence of lysozyme to test if bacterial sensitizers would directly induce bacterial lysis. E. coli that was incubated with lysozyme alone or E. coli without any treatment were also used as negative control.

E. coli (ATCC 25922) [3] = assay: Antibiotic uptake in the presence and absence of MD-100 (HPLC); type: cell-based; conditions: E. coli lysate, presence vs absence of 25 μg/ml MD-100
Method: Direct comparison of the antibiotic uptake in the presence and absence of MD-100 through HPLC study. E. coli (ATCC 25922) was cultured in Mueller Hinton II cation-adjusted broth for overnight at 37° C. to reach a density of OD600 of 0.8 to 1.0. To 20 ml fresh Mueller Hinton II cation-adjusted broth was added 50 μl E. coli stock, 200 μl 5 mg/ml O—CH3 novobiocin and 100 μl 10 mM MD-100. In the other group, the same amount of E. coli stock, O—CH3 novobiocin was used in the absence of MD-100. Then E. coli was incubated for 20 h at 37° C. with continuous shaking of 200 rpm. After, the E. coli suspension was centrifuged at 3000 g for 10 min and the culture media was removed to obtain bacteria pallet. The pallets from the two groups was re-suspended in PBS to reach the same OD600 of 2.0. To this E. coli suspension was spiked with 10 μM internal standard. 1 ml E. coli from each group in PBS was lysed by sonication on ice for 15 min, followed by adding 2 ml MeOH, the mixture was then centrifuged at 3000 g for 5 min and the supernatant was analyzed by HPLC. 20 μl of each sample was injected into Shimadzu Prominence UFLC (column: Waters C18, […], 4.6×100 mm, injection loop volume: 20 μl). The mobile phase was acetonitrile (ACN)/H2O (with 0.05% trifluoroacetic acid in the aqueous) with ratios defined as: 20%˜55% ACN, 0˜10 min; 55%˜65% ACN, 10˜20 min; 65%˜20% ACN, 20˜25 min. […]

M. smegmatis = assay: MIC on mycobacteria; type: cell-based, Mycobacterium smegmatis; conditions: Mycolicibacterium smegmatis, read-out: MIC on mycobacteria
[4] = tested on: mcr-1 over-expressing E. coli strains; assay: microbe, parasite or virus in culture; type: cell-based
E. coli [5] = assay: Bacterial resistance frequency study; type: cell-based
Method: Bacterial resistance frequency study: E. coli was grown overnight in Mueller Hinton II cation-adjusted broth medium and concentrated to ˜5×10^9 CFUs/ml in Mueller Hinton II cation-adjusted broth. […] Then the plates were incubated at 37° C. for 48 h. Then the colonies formed on the plate were recorded and resistant frequency was calculated.

[6] = 10 μM compound, rifampicin as the antibiotic (Table 6)
[7] = E. coli, rifampicin, compound at 10 μM

For `Cc1cc(COc2ccc(C(=N)N)cc2)cc(COc2ccc(C(=N)N)cc2)c1` [MD-100, 4,4′-(((5-methyl-1,3-phenylene)bis(methylene))bis(oxy))dibenzimidamide dihydrochloride], the Sensitization fold (E. coli (ATCC 25922) [1]; [6]) was 8 fold, the Sensitization fold (E. coli (ATCC 25922) [1]; E. coli, rifampicin, 10 μg/ml bacterial sensitizer) was 32^a fold and the Sensitization fold (E. coli (ATCC 25922) [1]; [7]) was 8-fold at 10 μM. The Sensitization fold (E. coli (ATCC 25922) [1]; E. coli, rifampicin, compound at 25 μM) was 32-fold at 25 μM, the MIC (E. coli (ATCC 25922) [1]; ATCC25922, 24 h) was 100 µM and the Sensitization fold (E. coli (ATCC 25922) [1]; wild-type E. coli towards erythromycin, 10 μg/ml MD-100) was 32 fold. The Sensitization fold (MRSA (ATCC 33592); compound at 6 μM) was 32-fold at 6 μM, the “bacterial lysis by lysozyme in the presence of sensitizer” value (E. coli [2]; 50 μg/ml sensitizer) was “quick bacterial lysis” and the “bacterial lysis by sensitizer itself” value (E. coli [2]) was “did not lead to bacterial lysis”. For the same compound, the “relative intracellular concentration of O-methyl novobiocin” value (E. coli (ATCC 25922) [3]) was “greatly increased” and the MIC (M. smegmatis) was 12 µM.
For `N=C(N)c1ccc(COc2cc(OCc3ccc(C(=N)N)cc3)cc(C(F)(F)F)c2)cc1` [MD-124, 4,4′-(((5-(trifluoromethyl)-1,3-phenylene)bis(oxy))bis(methylene)) dibenzimidamide dihydrochloride], the Sensitization fold (E. coli (ATCC 25922) [1]; [6]) was 512 fold, the “Sensitization fold (checkerboard assay)” value (E. coli (ATCC 25922) [1]; E. coli toward rifampicin, ~10 μg/ml MD-124) was “over 16,000 fold” and the “effect on bacterial growth (OD600 at different time points)” value (E. coli (ATCC 25922) [1]; E. coli, 5 μg/ml compound alone, no antibiotic, dihydrochloride) was “no bacterial the growth inhibition effect; also recorded: no effect on bacterial growth”. For the same compound, the Sensitization fold (E. coli (ATCC 25922) [1]; E. coli, rifampicin, 5 μg/ml bacterial sensitizer) was 512 fold, the Sensitization fold (E. coli (ATCC 25922) [1]; [7]) was 512-fold at 10 μM and the MIC (E. coli (ATCC 25922) [1]; ATCC25922, 24 h, E. coli, compound alone, read-out: MIC) was 100 µM. For the same compound, the MIC (E. coli (ATCC 25922) [1]; ATCC25922, E. coli, read-out: MIC of MD-124 itself) was 50 µg/mL, the Sensitization fold (E. coli (ATCC 25922) [1]; wild type E. coli towards rifampin, 3 μg/ml MD-124) was 16 fold and the Sensitization fold (E. coli (ATCC 25922) [1]; wild-type E. coli towards clarithromycin, 5 μg/ml sensitizer) was 256 fold. The Sensitization fold (MRSA (ATCC 33592); compound at 5 μM) was 32-fold at 5 μM, the MIC (MRSA (ATCC 33592); Staphylococcus aureus, 24 h, compound alone, read-out: MIC) was 10 µM and the “bacterial lysis by lysozyme in the presence of sensitizer” value (E. coli [2]; 25 μg/ml sensitizer) was “quick bacterial lysis”. The “bacterial lysis by sensitizer itself” value (E. coli [2]) was “did not lead to bacterial lysis”, the MIC ([4]; Escherichia coli, mcr-1 over-expression E. coli, read-out: MIC of MD-124) was 12.5 µg/mL and the “MIC of Rif with 3 μg/ml MD-124” value ([4]; strain mcr-1 A) was 0.32. The “Sensitization fold with 3 μg/ml MD-124” value ([4]; strain mcr-1 A, rifampicin, dihydrochloride) was 16 fold, the “MIC of Rif with 3 μg/ml MD-124” value ([4]; strain mcr-1 B) was 1.25 and the “MIC of Rif with 5 μg/ml MD-124” value ([4]; strain mcr-1 B) was 0.16. The “Sensitization fold with 3 μg/ml MD-124” value ([4]; strain mcr-1 B, rifampicin) was 4 fold, the “Sensitization fold with 5 μg/ml MD-124” value ([4]; strain mcr-1 B, rifampicin) was 32 fold and the “resistant frequency towards MD-124” value (E. coli [5]; 10 μg/ml MD-124, 2.7×10^10 CFUs tested) was < 3.7×10^−11. For the same compound, the “lower resistance frequency towards MD-124/antibiotic combination than the antibiotic itself” value (E. coli [5]; 10 μg/ml MD-124, antibiotic 2 to 7-fold of MIC) was 2 to 3 orders of magnitude and the MIC (M. smegmatis; M. smegmatis) was 12 µM.
